Measured values: patent publication US8865731B2, “Inhibitor of analgesic tolerance” (Kyowa Hakko Kirin Co., Ltd., priority 2008, dated 2014)

Tests used:
Male ddY mice [1] = experiment: Suppressing activity on morphine analgesic tolerance (hot plate method, response latency); format: in vivo; details: for ΔChange (Latency at each time point − Pre value) 0.5 h / ΔChange (Latency at each time point − Pre value) 1 h / ΔChange (Latency at each time point − Pre value) 2 h: Table 3; for ΔChange (Latency at each time point − Pre value) 0.5 h: day 7, 0.5 h; for ΔChange (Latency at each time point − Pre value) 1 h: day 7, 1 h; for ΔChange (Latency at each time point − Pre value) 2 h: day 7, 2 h; for development of analgesic tolerance (response latency) / effect on the response latency: Test Example 4; for development of analgesic tolerance (response latency): compound 10 mg/kg p.o. 30 min before each morphine 6 mg/kg s.c.
Procedure: (§1) Food and water were provided ad libitum.
(§2) Morphine was dissolved in physiological saline at a concentration of 0.6 mg/mL and subcutaneously administered at a dose of 6 mg/kg.
as §1, §2
The effect of Compounds (IC) and (ID) on morphine analgesic tolerance was studied. The experiment was performed in the same manner as in Test Example 3. Compounds (IC) and (ID) were used at a dose of 10 mg/kg, respectively.

adenosine A2A receptor = details: known from the literature (Eur. J. Pharmacol., 1994, 267(3), 335 and others); cited from earlier work
Male ddY mice [2] = experiment: Suppressing activity on oxycodone analgesic tolerance (hot plate method, response latency); details: for Latency (sec) Pre value (before drug administration on last day) / ΔChange (Latency at each time point − Pre value) 0.5 h / ΔChange (Latency at each time point − Pre value) 1 h / ΔChange (Latency at each time point − Pre value) 2 h: Table 6; for Latency (sec) Pre value (before drug administration on last day): day 4; for ΔChange (Latency at each time point − Pre value) 0.5 h: day 4, 0.5 h; for ΔChange (Latency at each time point − Pre value) 1 h: day 4, 1 h; for ΔChange (Latency at each time point − Pre value) 2 h: day 4, 2 h
Male ddY mice [3] = experiment: Suppressing activity on morphine-induced constipation (number of fecal pellets); format: in vivo; details: for number of fecal pellets: FIG. 2
Procedure: Food and water were provided ad libitum. At the time of collection of fecal pellets, food and water were not provided.
Morphine was dissolved in physiological saline at a concentration of 0.3 mg/mL and subcutaneously administered at a dose of 3 mg/kg.
On the day of the test, the tails of the mice were numbered for identification, and the body weight of each mouse was measured. On the basis of the measured body weight, 0.5% MC or Compound (IA) was orally administered. At 30 minutes after administration of 0.5% MC or Compound (IA), physiological saline or morphine was subcutaneously administered, and collection of fecal pellets was started. The fecal pellets were collected at 3 hours after administration of morphine. The amount of feces was evaluated by counting the number of the fecal pellets.

Male ddY mice [4] = experiment: Suppressing activity on morphine analgesic tolerance (hot plate method, response latency); format: in vivo; details: for ΔChange (Latency at each time point − Pre value) 0.5 h / ΔChange (Latency at each time point − Pre value) 1 h / ΔChange (Latency at each time point − Pre value) 2 h: single morphine administration group: morphine 6 mg/kg s.c. only on day 7
[5] = compound 10 mg/kg p.o. repeatedly administered alone
[6] = repeated combination group: compound 10 mg/kg p.o. 30 min before each morphine 6 mg/kg s.c., 7 days
[7] = Compound (IA) 10 mg/kg p.o. repeatedly administered alone
[8] = repeated combination group: Compound (IA) 10 mg/kg p.o. 30 min before oxycodone 20 mg/kg p.o., 4 days

With `COc1ccc(/C=C/c2nc3c(c(=O)n(C)c(=O)n3C)n2C)cc1OC` [Compound (ID)] the “ΔChange (Latency at each time point − Pre value) 0.5 h” value (Male ddY mice [1]; [5]) was 2.1 ± 0.8 s, the “ΔChange (Latency at each time point − Pre value) 1 h” value (Male ddY mice [1]; [5]) was 2.3 ± 1.3 s and the “ΔChange (Latency at each time point − Pre value) 2 h” value (Male ddY mice [1]; [5]) was 2.5 ± 0.9 s. The “ΔChange (Latency at each time point − Pre value) 0.5 h” value (Male ddY mice [1]; [6]) was 14.3 ± 1.7 s, the “ΔChange (Latency at each time point − Pre value) 1 h” value (Male ddY mice [1]; [6]) was 5.1 ± 1.3 s and the “ΔChange (Latency at each time point − Pre value) 2 h” value (Male ddY mice [1]; [6]) was -0.1 ± 1.4 s. For the same compound, the “development of analgesic tolerance (response latency)” value (from here on “development of analgesic tolerance”) (Male ddY mice [1]; 7 days) was “the development of analgesic tolerance was prevented” and the “effect on the response latency” value (Male ddY mice [1]; [5]) was “the effect on the response latency was not observed”.

For `CCCn1c(=O)c2c(nc(/C=C/c3ccc(OC)c(OC)c3)n2C)n(CCC)c1=O` [Compound (IA)], the “adenosine A2A receptor antagonistic activity” value (adenosine A2A receptor) is listed as “potent and selective”, the “Latency (sec) Pre value (before drug administration on last day)” value (Male ddY mice [2]; [7]) is listed as 11.9 ± 1.2 s and the “ΔChange (Latency at each time point − Pre value) 0.5 h” value (Male ddY mice [2]; [7]) is listed as -0.2 ± 1.7 s. For the same compound, the “ΔChange (Latency at each time point − Pre value) 1 h” value (Male ddY mice [2]; [7]) was -0.4 ± 2.2 s, the “ΔChange (Latency at each time point − Pre value) 2 h” value (Male ddY mice [2]; [7]) was -0.1 ± 2.2 s and the “Latency (sec) Pre value (before drug administration on last day)” value (Male ddY mice [2]; [8]) was 11.9 ± 0.7 s. The “ΔChange (Latency at each time point − Pre value) 0.5 h” value (Male ddY mice [2]; [8]) was 13.5 ± 2.6 s, the “ΔChange (Latency at each time point − Pre value) 1 h” value (Male ddY mice [2]; [8]) was 6.0 ± 1.6 s and the “ΔChange (Latency at each time point − Pre value) 2 h” value (Male ddY mice [2]; [8]) was 2.2 ± 1.6 s. For the same compound, the “development of analgesic tolerance” value (Male ddY mice [2]; Test Example 7, Compound (IA) 10 mg/kg p.o. 30 min before oxycodone 20 mg/kg p.o., 4 days) was “the development of analgesic tolerance was prevented”, the “effect on the response latency” value (Male ddY mice [2]; Test Example 7, Compound (IA) 10 mg/kg p.o. repeatedly administered alone) was “the effect on the response latency was not observed” and the “number of fecal pellets” value (Male ddY mice [3]; Compound (IA) 10 mg/kg p.o. 30 min before morphine 3 mg/kg s.c., 3 hours, vs morphine administration group) was “significantly increased”. For the same compound, the diarrhea (Male ddY mice [3]; combination: Compound (IA) 10 mg/kg p.o. and morphine 3 mg/kg s.c.) was “diarrhea was not induced”, the diarrhea (Male ddY mice [3]; only Compound (IA) 10 mg/kg p.o. administered) was “diarrhea was not induced” and the “development of analgesic tolerance” value (Male ddY mice [4]; Test Example 1, FIG. 1, Compound (IA) 10 mg/kg p.o. 30 min before morphine 6 mg/kg s.c., repeated 7 days) was “the development of analgesic tolerance was prevented”. For the same compound, the “effect on the response latency” value (Male ddY mice [4]; Test Example 1, FIG. 1, Compound (IA) 10 mg/kg p.o. repeatedly administered alone) was “the effect on the response latency was not observed”.

With `CN1CC[C@]23c4c5ccc(O)c4O[C@H]2[C@@H](O)C=C[C@H]3[C@H]1C5` [morphine, reference compound] the “number of fecal pellets” value (Male ddY mice [3]; morphine 3 mg/kg s.c., pellets collected 3 hours after administration, vs normal group) was “significantly decreased”, the “ΔChange (Latency at each time point − Pre value) 0.5 h” value (Male ddY mice [4]; Table 1) was 21.9 ± 1.9 s and the “ΔChange (Latency at each time point − Pre value) 1 h” value (Male ddY mice [4]; Table 1) was 11.8 ± 1.1 s. For the same compound, the “ΔChange (Latency at each time point − Pre value) 2 h” value (Male ddY mice [4]; Table 1) was 2.9 ± 0.9 s, the “ΔChange (Latency at each time point − Pre value) 0.5 h” value (Male ddY mice [4]; Table 2) was 20.2 ± 1.9 ^ sec and the “ΔChange (Latency at each time point − Pre value) 1 h” value (Male ddY mice [4]; Table 2) was 6.3 ± 1.7 s. For the same compound, the “ΔChange (Latency at each time point − Pre value) 2 h” value (Male ddY mice [4]; Table 2) was 2.3 ± 0.5 s, the “ΔChange (Latency at each time point − Pre value) 0.5 h” value (Male ddY mice [4]; Table 3) was 19.5 ± 2.0 s and the “ΔChange (Latency at each time point − Pre value) 1 h” value (Male ddY mice [4]; Table 3) was 6.4 ± 1.5 s. For the same compound, the “ΔChange (Latency at each time point − Pre value) 2 h” value (Male ddY mice [4]; Table 3) was -0.8 ± 1.5 s, the “ΔChange (Latency at each time point − Pre value) 0.5 h” value (Male ddY mice [4]; Table 4) was 16.8 ± 2.7 s and the “ΔChange (Latency at each time point − Pre value) 1 h” value (Male ddY mice [4]; Table 4) was 10.4 ± 2.2 s. For the same compound, the “ΔChange (Latency at each time point − Pre value) 2 h” value (Male ddY mice [4]; Table 4) was 8.8 ± 0.6 s, the “ΔChange (Latency at each time point − Pre value) 0.5 h” value (Male ddY mice [4]; Table 5) was 18.0 ± 2.2 s and the “ΔChange (Latency at each time point − Pre value) 1 h” value (Male ddY mice [4]; Table 5) was 6.8 ± 1.3 s. For the same compound, the “ΔChange (Latency at each time point − Pre value) 2 h” value (Male ddY mice [4]; Table 5) was 1.9 ± 1.0 s, the “development of analgesic tolerance” value (Male ddY mice [4]; Test Example 1, FIG. 1, morphine 6 mg/kg s.c. repeatedly for 7 days vs single morphine administration group) was “the development of analgesic tolerance was observed” and the “development of analgesic tolerance” value (Male ddY mice [4]; Test Example 3, morphine 6 mg/kg s.c. repeatedly for 7 days vs single morphine administration group) was “the development of analgesic tolerance was observed”. For the same compound, the “development of analgesic tolerance” value (Male ddY mice [4]; Test Example 4, morphine 6 mg/kg s.c. repeatedly for 7 days vs single morphine administration group) was “the development of analgesic tolerance was observed”, the “development of analgesic tolerance” value (Male ddY mice [4]; Test Example 5, morphine 6 mg/kg s.c. repeatedly for 7 days vs single morphine administration group) was “the development of analgesic tolerance was observed” and the “development of analgesic tolerance” value (Male ddY mice [4]; Test Example 6, morphine 6 mg/kg s.c. repeatedly for 7 days vs single morphine administration group) was “the development of analgesic tolerance was observed”.

With `CCn1c(=O)c2c(nc(/C=C/c3cc(OC)c(OC)c(OC)c3)n2C)n(CC)c1=O` [Compound (IC)] the “ΔChange (Latency at each time point − Pre value) 0.5 h” value (Male ddY mice [1]; [5]) was 1.0 ± 0.7 s, the “ΔChange (Latency at each time point − Pre value) 1 h” value (Male ddY mice [1]; [5]) was 3.3 ± 1.2 s and the “ΔChange (Latency at each time point − Pre value) 2 h” value (Male ddY mice [1]; [5]) was 1.7 ± 0.7 s. For the same compound, the “ΔChange (Latency at each time point − Pre value) 0.5 h” value (Male ddY mice [1]; [6]) was 16.0 ± 1.8 s, the “ΔChange (Latency at each time point − Pre value) 1 h” value (Male ddY mice [1]; [6]) was 5.1 ± 1.7 s and the “ΔChange (Latency at each time point − Pre value) 2 h” value (Male ddY mice [1]; [6]) was 0.9 ± 1.3 s. For the same compound, the “development of analgesic tolerance” value (Male ddY mice [1]; 7 days) was “the development of analgesic tolerance was prevented” and the “effect on the response latency” value (Male ddY mice [1]; [5]) was “the effect on the response latency was not observed”.
